Patent US12202805B2, “Process for preparing (5S)-{[2-(4-carboxyphenyl)ethyl] |2-(2-{|3-chloro-4'-(trifluoromethyl)biphenyl-4-yl]methoxy}phenyl)ethyl]aminol-5,6,7,8-tetrahydroquinoline-2-carboxylic acid and its crystalline forms for use as pharmaceutically active compound” (Bayer Aktiengesellschaft, priority 2021, dated 2025)
Values joined by “and” are separate entries in the source; they are usually repeats but may differ in a detail not shown here. Identical values can stand only once.

System: thromboxane A2 challenged PAH-minipig
Experiment: Haemodynamics in the anesthetized thromboxane challenged minipig, intratracheal dry powder (PAP, BP)
Format: in vivo, Göttingen Minipigs
Conditions: for BP (absolute values) / PAP (absolute values): lactose vehicle first, test powder 1.5 mg/4 kg i.t. @90 min, each animal (n=3); for % changes vs. baseline on PAP: baseline 100.0 at 80 min, i.t. dry powder, each animal
Method: Healthy Göttingen Minipigs® Ellegaard (Ellegaard, Denmark) of both sexes and having a weight of 2-6 kg were used. The animals were sedated by i.m. administration of about 25 mg/kg ketamine and about 10 mg/kg azaperone. Anaesthesia was initiated by i.v. administration of about 2 mg/kg ketamine and about 0.3 mg/kg midazolam. Maintenance of anaesthesia was by i.v. administration of about 7.5-30 mg/kg/h ketamine and about 1-4 mg/kg/h midazolam (rate of infusion 1-4 ml/kg/h) and about 150 μg/kg/h pancuronium bromide (for example Pancuronium-Actavis). After intubation, the animals were ventilated by the ventilator at a constant respiratory volume (10-12 ml/kg, 35 breaths/min; Avea®, Viasys Healthcare, USA, or Engström Carestation, GE Healthcare, Freiburg, Germany) such that an end-tidal CO2 concentration of about 5% was achieved. Ventilation was performed with room air, enriched with about 40% oxygen (normoxia). For the measurement of the haemodynamic parameters such as pulmonary arterial pressure (PAP), blood pressure (BP) and heart rate (HR), catheters were inserted into the carotid artery to measure the blood pressure, and a Swan-Ganz® catheter was introduced in a flow-directed manner via the jugular vein into the pulmonary artery. The haemodynamic signals were recorded and evaluated by means of pressure transducers (Combitransducer, B. Braun, Melsungen, Germany)/amplifiers and Ponemah® as data acquisition software.
As reference pure Lactose vehicle was applied in the beginning of each experiment.

[1] = time 150 min, listed as ex. 6e, sesquihydrate
[2] = time 160 min, listed as ex. 6e, sesquihydrate
[3] = time 170 min, listed as ex. 6e, sesquihydrate
[4] = time 180 min, listed as ex. 6e, sesquihydrate
[5] = time 190 min, listed as ex. 6e, sesquihydrate
[6] = time 200 min, listed as ex. 6e, sesquihydrate
[7] = time 210 min, listed as ex. 6e, sesquihydrate
[8] = time 220 min, listed as ex. 6e, sesquihydrate
[9] = time 230 min, listed as ex. 6e, sesquihydrate
[10] = time 240 min, listed as ex. 6e, sesquihydrate
[11] = time 250 min, listed as ex. 6e, sesquihydrate
[12] = time 260 min, listed as ex. 6e, sesquihydrate
[13] = time 270 min, listed as ex. 6e, sesquihydrate
[14] = time 280 min, listed as ex. 6e, sesquihydrate
[15] = time 290 min, listed as ex. 6e, sesquihydrate
[16] = time 300 min, listed as ex. 6e, sesquihydrate
[17] = time 310 min, listed as ex. 6e, sesquihydrate
[18] = time not given, 1st row after 310 min, listed as ex. 6e, sesquihydrate
[19] = time not given, 2nd row after 310 min, listed as ex. 6e, sesquihydrate
[20] = time −10 min, 375 μg/kg i.t., sesquihydrate

## O.O.O.O=C(O)c1ccc(CCN(CCc2ccccc2OCc2ccc(-c3ccc(C(F)(F)F)cc3)cc2Cl)[C@H]2CCCc3nc(C(=O)O)ccc32)cc1.O=C(O)c1ccc(CCN(CCc2ccccc2OCc2ccc(-c3ccc(C(F)(F)F)cc3)cc2Cl)[C@H]2CCCc3nc(C(=O)O)ccc32)cc1 [example 6e, (5S)—{[2-(4-Carboxyphenyl)ethyl][2-(2-{[3-chloro-4′-(trifluoromethyl)biphenyl-4-yl]methoxy}phenyl)-ethyl]amino}-5,6,7,8-tetrahydroquinoline-2-carboxylic acid sesquihydrate]
Time 150 min
  BP (absolute values): 99 mmHg
[1]
  BP (absolute values): 121 mmHg and 114 mmHg
  PAP (absolute values): 30.3 mmHg and 29.0 mmHg and 26.6 mmHg
Time 160 min, sesquihydrate
  % changes vs. baseline on PAP: 71.0% and 79.5% and 65.9%
Time 160 min
  BP (absolute values): 100 mmHg
[2]
  BP (absolute values): 122 mmHg and 114 mmHg
  PAP (absolute values): 29.0 mmHg and 30.3 mmHg and 26.9 mmHg
Time 170 min, sesquihydrate
  % changes vs. baseline on PAP: 68.5% and 74.3% and 61.5%
[3]
  BP (absolute values): 101 mmHg and 121 mmHg and 115 mmHg
  PAP (absolute values): 28.0 mmHg and 28.3 mmHg and 25.1 mmHg
Time 180 min, sesquihydrate
  % changes vs. baseline on PAP: 63.2% and 80.8% and 62.0%
Time 180 min
  BP (absolute values): 99 mmHg
[4]
  BP (absolute values): 119 mmHg and 115 mmHg
  PAP (absolute values): 25.8 mmHg and 30.8 mmHg and 25.3 mmHg
Time 190 min, sesquihydrate
  % changes vs. baseline on PAP: 61.5% and 80.8% and 58.6%
Time 190 min
  BP (absolute values): 99 mmHg
[5]
  BP (absolute values): 123 mmHg and 114 mmHg
  PAP (absolute values): 30.8 mmHg and 23.9 mmHg
Time 200 min, sesquihydrate
  % changes vs. baseline on PAP: 62.3% and 80.3% and 60.2%
Time 200 min
  BP (absolute values): 98 mmHg
[6]
  BP (absolute values): 116 mmHg and 113 mmHg
  PAP (absolute values): 25.5 mmHg and 30.6 mmHg and 24.6 mmHg
Time 210 min, sesquihydrate
  % changes vs. baseline on PAP: 61.0% and 80.7% and 59.4%
Time 210 min
  BP (absolute values): 99 mmHg
[7]
  BP (absolute values): 117 mmHg and 116 mmHg
  PAP (absolute values): 25.0 mmHg and 30.8 mmHg and 24.2 mmHg
Time 220 min, sesquihydrate
  % changes vs. baseline on PAP: 59.5% and 86.3% and 57.8%
Time 220 min
  BP (absolute values): 97 mmHg
[8]
  BP (absolute values): 123 mmHg and 114 mmHg
  PAP (absolute values): 24.3 mmHg and 32.9 mmHg and 23.6 mmHg
Time 230 min, sesquihydrate
  % changes vs. baseline on PAP: 58.6% and 82.6% and 57.8%
Time 230 min
  BP (absolute values): 97 mmHg
[9]
  BP (absolute values): 119 mmHg and 114 mmHg
  PAP (absolute values): 24.0 mmHg and 31.5 mmHg and 23.6 mmHg
Time 240 min, sesquihydrate
  % changes vs. baseline on PAP: 59.3% and 81.5% and 57.6%
Time 240 min
  BP (absolute values): 97 mmHg
[10]
  BP (absolute values): 119 mmHg and 112 mmHg
  PAP (absolute values): 24.3 mmHg and 31.0 mmHg and 23.5 mmHg
Time 250 min, sesquihydrate
  % changes vs. baseline on PAP: 59.3% and 82.2% and 56.1%
Time 250 min
  BP (absolute values): 97 mmHg
[11]
  BP (absolute values): 118 mmHg and 111 mmHg
  PAP (absolute values): 24.2 mmHg and 31.3 mmHg and 22.9 mmHg
Time 260 min, sesquihydrate
  % changes vs. baseline on PAP: 58.8% and 82.7% and 57.6%
Time 260 min
  BP (absolute values): 96 mmHg
[12]
  BP (absolute values): 116 mmHg and 112 mmHg
  PAP (absolute values): 24.0 mmHg and 31.5 mmHg and 23.5 mmHg
Time 270 min, sesquihydrate
  % changes vs. baseline on PAP: 59.9% and 78.3% and 55.4%
Time 270 min
  BP (absolute values): 99 mmHg
[13]
  BP (absolute values): 115 mmHg and 109 mmHg
  PAP (absolute values): 24.5 mmHg and 29.8 mmHg and 22.6 mmHg
Time 280 min, sesquihydrate
  % changes vs. baseline on PAP: 58.4% and 78.3% and 55.9%
[14]
  BP (absolute values): 97 mmHg and 111 mmHg and 110 mmHg
  PAP (absolute values): 23.9 mmHg and 29.8 mmHg and 22.8 mmHg
Time 290 min, sesquihydrate
  % changes vs. baseline on PAP: 57.4% and 79.6% and 53.9%
[15]
  BP (absolute values): 97 mmHg and 110 mmHg and 107 mmHg
  PAP (absolute values): 23.5 mmHg and 30.3 mmHg and 22.0 mmHg
Time 300 min, sesquihydrate
  % changes vs. baseline on PAP: 60.1% and 78.7% and 54.5%
Time 300 min
  BP (absolute values): 98 mmHg
[16]
  BP (absolute values): 109 mmHg and 108 mmHg
  PAP (absolute values): 24.6 mmHg and 30.0 mmHg and 22.2 mmHg
Time 310 min, sesquihydrate
  % changes vs. baseline on PAP: 58.4% and 77.6% and 53.7%
Time 310 min
  BP (absolute values): 97 mmHg
[17]
  BP (absolute values): 109 mmHg and 105 mmHg
  PAP (absolute values): 23.9 mmHg and 29.6 mmHg and 21.9 mmHg
Time 320 min, sesquihydrate
  % changes vs. baseline on PAP: 61.8% and 76.3% and 55.1%
Time 330 min, sesquihydrate
  % changes vs. baseline on PAP: 61.3% and 74.8% and 53.0%
Time not given, 1st row after 310 min
  BP (absolute values): 94 mmHg
[18]
  BP (absolute values): 108 mmHg and 105 mmHg
  PAP (absolute values): 25.3 mmHg and 29.1 mmHg and 22.5 mmHg
Time not given, 2nd row after 310 min
  BP (absolute values): 97 mmHg
[19]
  BP (absolute values): 108 mmHg and 105 mmHg
  PAP (absolute values): 25.1 mmHg and 28.5 mmHg and 21.6 mmHg
Time −10 min, 375 μg/kg i.t.
  BP (mean): 99 mmHg
[20]
  BP (mean): 107 mmHg and 119 mmHg
  PAP(mean): 42.0 mmHg and 36.4 mmHg and 37.5 mmHg
